Test results reported in patent US20250243238A1, “TETRAZINE AMINO ACIDS AND METHODS FOR THEIR PRODUCTION AND USE” (Oregon State University, priority 2024, published 2025).

How the values were obtained:
[1] = system: Pyl-tRNA/RS pairs (Tet4 E1 and D4 synthetases); assay: Tet4 ncAA incorporation into GFP150-TAG in HEK293T cells, suppression efficiency by flow cytometry; type: cell-based, Methanosarcina barkeri; settings: flow cytometry
Description: (§1) To access newly developed Tet4.0 derivatives into mammalian cells, an optimized eukaryotic expression system was used and their stability and reaction efficiency were validated inside living cells. The permissibility of Tet-v4.0 derivatives into eukaryotic protein was tested with an evolved synthetase Tet-v4.0 E1 and D4 co-transfected with the reporter plasmid pAcBac1-sfGFP-TAG150 into the HEK293T cells and supplemented with 100 μM each of five different Tet-v4.0 (Ph, 3-Me-Ph, 3-F-Ph, 4-F-Ph, and Pyr) derivatives side-by-side.
(§2) The compatibility of the Tet4 system with mammalian cells was explored. Specifically, the ability of Tet4 to be incorporated into proteins expressed in HEK293T cells, an immortalized human embryonic kidney cell line, was explored. […] Genes for Tet4 E1 and D4 synthetases were cloned with a terminal nuclear export sequence into the eukaryotic expression Pyl-tRNA/RS vector pAcBac1. Pyl-tRNA/RS pairs were then co-transfected with pAcBac1-GFP150-TAG into HEK293T cells and incubated either in the absence of ncAA, or with various concentrations of Tet4 ncAAs, and suppression efficiencies were assessed using flow cytometry. Tet4-Ph and Tet4-Pyr were incorporated into GFP about 50% as well as the Tet-v3.0 system, Tet3-Bu. As with Tet4 incorporation into E. coli expressed proteins, the highest suppression efficiencies in HEK293T cells were obtained with Mb-PylRS synthetase E1 and Tet4-Ph ncAA. Selective incorporation and reactivity of GFP150-Tet4 proteins were verified in whole-cell HEK293T lysates using sTCO-PEG5k-induced SDS-PAGE mobility shifts, and in purified proteins by mass spectrometry.
(§3) Transfection of HEK293T cells and imaging method. HEK293T cells were plated in a 24-well plate at the density of 40% confluency. Cells were transfected the next day using jetPRIME reagent according to the manufacturer's protocol. Briefly, 67 ng of pAcBac1-NES-D4-RS or pAcBac1-NES-E1-RS and 555 ng of pAcBac1-GFP-150TAG plasmid DNA were diluted with 50 μL of jetPRIME buffer. […] GFP expression was verified by fluorescence microscopy on EVOS FL imaging system.

[2] = target: T1, Pyl-tRNA/RS pairs (Tet4 E1 and D4 synthetases) (Methanosarcina barkeri, UniProt Q6WRH6, C313A/N311S/V366H/W382I); assay: as above; type: cell-based; settings: 100 μM ncAA, synthetase D4
T1 construct: D4-Py1RS (Protein); expressed in transfected cells; host or cells: HEK293T
Description: as §1, §2, §3

[3] = Stability and reactivity of incorporated Tet ncAA inside protein on storage in PBS; type: physicochemical
Description: The stability and reaction efficiency of incorporated Tet ncAAs in proteins was investigated. […] The SDS-PAGE gel mobility shift assay and mass spectrometry analysis of the incorporated Tet-v2.0, Tet-v3.0 and Tet-v4.0 derivatives confirmed their stability and reactivity with sTCO.
Mobility shift assay. Labeling efficiency and purity of Tet-containing proteins have been verified by reacting with 10 eqv. sTCO-PEG5k under PBS (pH 7.1) for 10 minutes at room temperature and examined the mobility shift of the reacted proteins in SDS-PAGE gel. The mobility shift assay helps to provide an insight into the reaction efficiency of Tet-containing proteins and also quantifies the amount of reactive Tet ncAA present in protein and measures if there is any misincorporation or Tet-degradation by showing unreactive protein.
In addition, to assess their stability and reactivity more rigorously, GFP-Tet-v4.0 (Ph, 3-Me-Ph, 3-F-Ph and Pyr) were incubated at 4° C. and room temperature (RT) under 50 mM PBS (pH 7.1) with 100 mM imidazole and studied their reaction efficiency for another 8 days.
Mass spectrometry. The site-specific labelling reaction between Tet ncAA and sTCO is quantitative inside protein was confirmed by ESI-Q-TOF mass spectrometry. […] No other peak has been detected for sTCO exposed samples which verified that the GFP-Tet reacts with sTCO quantitatively without involving side reactions.

[4] = target: T2, Mb-PylRS/tRNACUA pairs D4 and E1 (Methanosarcina barkeri, UniProt Q6WRH6, C313A/N311S/V366H/W382I); assay: Efficiency, fidelity and permissivity of evolved synthetases: GFP150-TAG expression in E. coli with Tet ncAA; type: cell-based; settings: synthetase D4 only
T2 construct: D4-Py1RS (Protein); expressed in transfected cells; host or cells: E. coli DH10b carrying pBK-RS and pALS-GFP150TAG
Description: (§4) To incorporate Tet ncAAs in the protein, a GCE machinery was developed to encode Tet ncAAs into the protein in response to TAG codon suppression with evolving orthogonal aaRS/tRNAcuA pair. The permissibility of developed synthetases for structurally parallel Tet ncAA derivatives was evaluated in 25 mL scale in presence and absence of 0.5 mM Tet ncAA.
(§5) Efficiency and fidelity of selected synthetases. The efficiency and fidelity of the selected synthetases were measured by expressing GFP150 in 50 mL AIM with and without 0.5 mM Tet4-Ph. DH10b cells containing the selected pBK-RSs and the pALS-GFP150TAG plasmids, were used to inoculate 5 mL of NIM containing kanamycin (50 μg/mL) and tetracycline (25 μg/mL). Cells were grown for 16 hours at 37° C. shaking at 250 rpm. The saturated NIM cultures (500 μL) were used to inoculate in 50 mL AIM containing kanamycin (50 μg/mL) and tetracycline (25 μg/mL) and measured fluorescence using a Turner Biosystems Picofluor fluorimeter diluting 100 μL cell culture in 1.9 mL water. Two synthetases D4 and E1 for Tet4-Ph were identified to have good efficiency and fidelity. The selected two synthetases are differ at two mutation sites C313A/G and W382I/V respectively.
(§6) Permissivity screen for Tet4-Pyr with selected synthetases. To assess if the top four selected RSs for Tet4-Ph could incorporate Tet4-Pyr, expressions of GFP150TAG with Tet4-Pyr were evaluated. Using the above efficiency and fidelity method, 5 mL AIM separate cultures were inoculated with cells containing the pBK-RSs/pALS-GFP150. Tet4-Pyr (0.5 mM) was added to cultures from a 50 mM DMF ncAA stock solution. Cultures were grown for 30-36 hours at 37° C. and 250 rpm. Fluorescence of the culture was measured by diluting 100 μL cell culture in 1.9 mL water.
(§7) Expression and purification of GFP150-TAG-Tet4. […] Protein concentration was determined by measuring absorbance at 280 nm. Protein purity was assessed using SDS-PAGE.

[5] = system: Mb-PylRS/tRNACUA pairs D4 and E1; assay: as above; type: cell-based, Methanosarcina barkeri; settings: synthetases D4 and E1
Description: as §4, §5, §6, §7

T2 sequence (Q6WRH6 whole entry N311S/C313A/V366H/W382I): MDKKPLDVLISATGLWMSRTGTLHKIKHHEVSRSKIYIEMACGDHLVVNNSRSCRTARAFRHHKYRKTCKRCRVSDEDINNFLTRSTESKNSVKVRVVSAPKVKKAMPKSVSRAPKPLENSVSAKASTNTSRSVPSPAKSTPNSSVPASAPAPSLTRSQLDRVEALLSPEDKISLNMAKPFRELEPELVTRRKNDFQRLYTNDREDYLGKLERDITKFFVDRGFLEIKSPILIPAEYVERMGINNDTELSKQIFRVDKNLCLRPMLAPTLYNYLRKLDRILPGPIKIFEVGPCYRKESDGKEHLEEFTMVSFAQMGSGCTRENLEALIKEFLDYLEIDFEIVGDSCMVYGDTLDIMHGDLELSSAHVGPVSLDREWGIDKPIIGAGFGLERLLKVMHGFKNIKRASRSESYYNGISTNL
T1 sequence (Q6WRH6 whole entry N311S/C313A/V366H/W382I): as above

SMILES | incorporation into GFP relative to the Tet-v3.0 system, Tet3-Bu [1] | incorporation into GFP-TAG150 [2] | stability and reactivity inside protein ([3]; GFP-Tet protein, PBS pH 7.1, room temperature) | yield of GFP150-TAG expressed with the ncAA [4] | yield of GFP150-TAG expressed with the ncAA ([4]; listed as Tet-v4.0Pyr) [mg/L] | stability inside protein ([3]; PBS pH 7.1, both 4° C. and RT, after 8 days) | yield of GFP150-TAG expressed with the ncAA [5] [mg/L]
N[C@@H](Cc1nnc(-c2ccccn2)nn1)C(=O)O [Tet4-Pyr, (S)-2-amino-3-(6-(pyridin-2-yl)-1,2,4,5-tetrazin-3-yl)propanoic acid] | about 50% | relatively high yield | degraded with time | about 40 mg/L | 35 to 40 |  | 
N[C@@H](Cc1nnc(-c2ccccc2)nn1)C(=O)O [Tet4-Ph, (S)-2-amino-3-(6-phenyl-1,2,4,5-tetrazin-3-yl)propanoic acid] | about 50% |  |  |  |  | highly stable | 55 to 60
